Assay [1] concerns peritoneal macrophages derived from MyD88 KO mice. Type of assay: cell-based, MyD88 KO mice (C57BL6 background).
The test system is the same in assay [2]. The format is cell-based, MyD88 KO mice (C57BL6 background). The source holds these as a separate data set.
The test system of assay [3] is peritoneal macrophages. Type of assay: cell-based, C57BL6 mice.
Assay [4] relates to peritoneal macrophages. The format is cell-based, C57BL6 mice. The source holds these as a separate data set.
For assay [5], the system named is peritoneal macrophages from TLR9 KO mice. The format is cell-based.

With “5′-CTGCCACGTTCTCCTGCA*C*C*-3′ [nuclease resistant EN101]”, the “effect on MIP-2 levels in the supernatants of PMs” value in assay [1] was “almost totally inhibited”. Further, in assay [2], the “number of MAC-1 positive cells” value was “reduced significantly”. In addition, in the assay on peritoneal macrophages [3], the “MIP-2 secretion from PMs” value was “inhibited”, the “levels of MIP-2 in the supernatants of PM” value is reported as “strongly elevated”, the “secretion of IL-6 from activated PMs” value is listed as “did not induce secretion” and the “secretion of TNF-α from activated PMs” value is “did not induce secretion”. Besides, the “number of MAC-1 positive cells” value in the assay on peritoneal macrophages [4] was “minor effect”. Besides, the “survival/proliferation of total and activated peritoneal macrophages” value in the assay with peritoneal macrophages [4] (72 hr) is “inhibited”. In assay [5], the “number of total and MAC-1 positive cells” value is given as “reduced significantly”.

The record behind these values is US20090275634A1 (priority 2006, published 2009).
